Measured values taken from US9770026B2, “Substituted pyrimidine compound and uses thereof” (Shenyang Sinochem Agrochemicals R&D Co., Ltd., priority 2012, dated 2017).

Assays:
[1] = tested on: rice blast; experiment: microbe, parasite or virus in culture; format: cell-based; details: Pyricularia oryzae; for inhibition at 8.3 ppm: read-out: inhibition rate against rice blast, 8.3 ppm, in vitro; for inhibition at 25 ppm: read-out: inhibition rate against rice blast, 25 ppm, in vitro
[2] = tested on: Green peach aphids (Myzus Persicae Sulzer); experiment: bioactivity test against green peach aphid, airbrush foliar spray; format: in vivo; details: Myzus persicae, foliar, 48 h, contrastive test, read-out: Insecticidal activity against peach aphid (%); for pest or weed control at 600 µg/mL: 600 mg/L; for pest or weed control at 10 µg/mL: 10 mg/L; for pest or weed control at 100 µg/mL: 100 mg/L
Outline: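 Aphids (15-30 per cabbage leaf disc) on moist filter paper were airbrush-sprayed at 10 psi, 0.5 mL, with compound from acetone:methanol (1:1) diluted in water with 0.1% tween 80. Held at 25±1 C, 60±5% RH; survivors counted after 48 hrs to give death rates.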

[3] = tested on: wheat powdery mildew; experiment: protectant activity in vivo against wheat powdery mildew; details: Triticum aestivum, 168 h, protectant activity; for pest or weed control at 6.25 µg/mL: read-out: control effect against wheat powdery mildew (%), 6.25 mg/L; for pest or weed control at 25 µg/mL: read-out: control effect against wheat powdery mildew (%), 25 mg/L; for pest or weed control at 100 µg/mL: read-out: control effect against wheat powdery mildew (%), 100 mg/L; for pest or weed control at 400 µg/mL: read-out: control effect against wheat powdery mildew (%), 400 mg/L
[4] = tested on: cucumber gray mold; experiment: fungicidal activity in vitro (inhibition rate) against cucumber gray mold; format: cell-based; details: 25 ppm, in vitro; read-out: inhibition rate against cucumber gray mold
[5] = tested on: Diamond back moth; experiment: insecticidal activity against diamond back moth, airbrush spray; format: in vivo; details: 72 h; for pest or weed control at 600 µg/mL: 600 mg/L; for pest or weed control at 10 µg/mL: 10 mg/L; for pest or weed control at 100 µg/mL: 100 mg/L
Outline: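 Airbrush leaf-disc spray test: both faces of 2 cm cabbage discs received 0.5 ml of test solution at 0.7 kg/cm^2. Solutions were made in acetone:methanol (1:1) and brought to concentration with 0.1% Tween 80 in water. Ten second-instar larvae per disc, triplicates, were held at 25° C and 60˜70% R.H., with mortality recorded at 72 hrs.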

[6] = tested on: cucumber downy mildew; experiment: protectant activity in vivo against cucumber downy mildew; details: Cucumis sativus, 168 h, protectant activity; for pest or weed control at 25 µg/mL: read-out: control effect against cucumber downy mildew (%), 25 mg/L; for pest or weed control at 50 µg/mL: read-out: control effect against cucumber downy mildew (%), 50 mg/L; for pest or weed control at 100 µg/mL: read-out: control effect against cucumber downy mildew (%), 100 mg/L; for pest or weed control at 400 µg/mL: read-out: control effect against cucumber downy mildew (%), 400 mg/L
[7] = tested on: armyworm; experiment: bioactivity test against armyworm, airbrush spray; format: in vivo; details: 72 h, read-out: Insecticidal activity against armyworm (%); for pest or weed control at 600 µg/mL: 600 mg/L
[8] = tested on: corn rust; experiment: protectant activity in vivo against corn rust; details: Zea mays, 168 h, protectant activity; for pest or weed control at 6.25 µg/mL: read-out: control effect against corn rust (%), 6.25 mg/L; for pest or weed control at 25 µg/mL: read-out: control effect against corn rust (%), 25 mg/L; for pest or weed control at 100 µg/mL: read-out: control effect against corn rust (%), 100 mg/L; for pest or weed control at 400 µg/mL: read-out: control effect against corn rust (%), 400 mg/L
[9] = tested on: carmine spider mite; experiment: bioactivity test against carmine spider mite, airbrush spray; format: in vivo; details: Tetranychus cinnabarinus, 72 h, contrastive test, read-out: Insecticidal activity against carmine spider mite (% ); for pest or weed control at 600 µg/mL: 600 mg/L; for pest or weed control at 10 µg/mL: 10 mg/L; for pest or weed control at 100 µg/mL: 100 mg/L
Outline: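 Broadbean seedlings infested with adult mites were sprayed with compound (acetone/methanol stock diluted in 0.1% Tween 80 water) by airbrush at 0.7 kg/cm^2, 0.5 ml. Three replicates were run. Mortality was scored after 72 hrs.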

SMILES	pest or weed control at 600 µg/mL [2] [%]	pest or weed control at 6.25 µg/mL [3] [%]	pest or weed control at 25 µg/mL [3] [%]	pest or weed control at 100 µg/mL [3] [%]	pest or weed control at 400 µg/mL [3] [%]	inhibition at 25 ppm [4] [%]	pest or weed control at 600 µg/mL [5] [%]	pest or weed control at 25 µg/mL [6] [%]	pest or weed control at 50 µg/mL [6] [%]	pest or weed control at 100 µg/mL [6] [%]	pest or weed control at 400 µg/mL [6] [%]	pest or weed control at 600 µg/mL [7] [%]	pest or weed control at 6.25 µg/mL [8] [%]	pest or weed control at 25 µg/mL [8] [%]	pest or weed control at 100 µg/mL [8] [%]	pest or weed control at 400 µg/mL [8] [%]	pest or weed control at 600 µg/mL [9] [%]	inhibition at 25 ppm [1] [%]	pest or weed control at 10 µg/mL [2] [%]	pest or weed control at 100 µg/mL [2] [%]	further results
Cc1ncnc(NC(C)c2cccc3ccccc23)c1Cl (centres unmarked) [CK17, reference compound]	0	50	70	75	100	0	0	0	10	40	100	0	0	0	0	100	40				inhibition at 2.8 ppm ([1]; read-out: inhibition rate against rice blast, 2.8 ppm, in vitro): 0%; inhibition at 8.3 ppm [1]: 50%
CC(Cl)c1ncnc(NCCc2ccc(Oc3nc(Cl)c(Cl)cc3Cl)cc2)c1Cl (centres unmarked) [CK63, reference compound]	100				50	0	57				70	71	0	0	30	100	0	0	0	0	
CCc1ncnc(NC(=O)Cc2ccc(Oc3ccc(C(F)(F)F)cc3)cc2)c1Cl [CK59, reference compound]	75				0	0	57				80	14				0	0	0	0	15	
CCc1ncnc(OCCc2ccc(OCc3ccccc3)cc2)c1Cl [CK14, reference compound]	100	0	0	10	85	0	67	0	0	40	98	0	0	0	20	100	100		0	70	inhibition at 8.3 ppm [1]: 0%; pest or weed control at 10 µg/mL [5]: 0%; pest or weed control at 100 µg/mL [5]: 10%; pest or weed control at 10 µg/mL [9]: 6%; pest or weed control at 100 µg/mL [9]: 33%
CCc1ncnc(OC(CC)c2ccc(Oc3ccc(C(F)(F)F)cn3)cc2)c1Cl (centres unmarked) [CK15, reference compound]	69	0	10	85	95	0	17	0	0	15	95	0	0	30	85	95	59	0	0	40	pest or weed control at 10 µg/mL [5]: 0%; pest or weed control at 100 µg/mL [5]: 15%; pest or weed control at 10 µg/mL [9]: 0%; pest or weed control at 100 µg/mL [9]: 0%
Cc1ncnc(NC(=O)Cc2ccc(Oc3ncc(C(F)(F)F)cc3Cl)cc2)c1Cl [CK60, reference compound]	81				0	0	86	0	0	10	100	0				0	0	0	0	0	pest or weed control at 10 µg/mL [5]: 15%; pest or weed control at 100 µg/mL [5]: 25%
CCc1ncnc(OCCc2ccc(Oc3ccccc3)cc2)c1Cl [CK13, reference compound]	100	0	0	0	40	0	67	0	0	25	85	86	0	0	0	100	100	0	83	98	pest or weed control at 5 µg/mL ([2]; 5 mg/L): 0%; pest or weed control at 10 µg/mL [5]: 0%; pest or weed control at 100 µg/mL [5]: 16%; pest or weed control at 10 µg/mL ([7]; 10 mg/L): 0%; pest or weed control at 100 µg/mL ([7]; 100 mg/L): 0%; pest or weed control at 10 µg/mL [9]: 0%; pest or weed control at 100 µg/mL [9]: 0%
Cc1nc(C)c(Cl)c(NCc2ccc(OCc3ccccc3)cc2)n1 [CK52, reference compound]	88				0	0	20	70	90	98	100	0				85	44		0	0	inhibition at 8.3 ppm [1]: 0%
